15 compounds from US8304412B2, “Cyclically substituted 3,5-dicyano-2-thiopyridines and use thereof” (Bayer Intellectual Property GmbH, priority 2006, dated 2012) can be followed below.

Common to all, as to assay type: cell-based
One experiment has as its target T1, adenosine A1 receptor (Homo sapiens, UniProt P30542).
T1 construct: expressed in transfected cells; host or cells: CHO (Chinese Hamster Ovary)
T1 sequence (P30542 1-326): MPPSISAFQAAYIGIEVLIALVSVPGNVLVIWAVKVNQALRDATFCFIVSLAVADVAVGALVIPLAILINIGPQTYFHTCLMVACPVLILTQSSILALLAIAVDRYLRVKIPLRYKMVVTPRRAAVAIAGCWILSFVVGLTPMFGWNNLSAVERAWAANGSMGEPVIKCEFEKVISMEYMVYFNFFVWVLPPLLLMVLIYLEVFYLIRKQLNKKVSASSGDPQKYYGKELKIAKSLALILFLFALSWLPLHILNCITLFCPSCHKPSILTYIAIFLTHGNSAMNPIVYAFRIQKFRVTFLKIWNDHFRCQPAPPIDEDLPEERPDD
The experiment in a line: Indirect determination of adenosine agonism by gene expression (luciferase), A1 cells. To be noted: 1 μM forskolin; stably transfected CHO cells; 50% inhibition of luciferase answer. The text has this: (§1) B-1. Indirect Determination of the Adenosine Agonism by Way of Gene Expression
(§2) Cells of the CHO (Chinese Hamster Ovary) permanent cell line are transfected stably with the cDNA for the adenosine receptor subtypes A1, A2a and A2b. The adenosine A1 receptors are coupled to the adenylate cyclase by way of Gi proteins, while the adenosine A2a and A2b receptors are coupled by way of Gs proteins. In correspondence with this, the formation of cAMP in the cell is inhibited or stimulated, respectively. After that, expression of the luciferase is modulated by way of a cAMP-dependent promoter. The luciferase test is optimized, with the aim of high sensitivity and reproducibility, low variance and good suitability for implementation on a robot system, by varying several test parameters, such as cell density, duration of the growth phase and the test incubation, forskolin concentration and medium composition. The following test protocol is used for pharmacologically characterizing cells and for the robot-assisted substance screening:
(§3) The stock cultures are grown, at 37° C. and under 5% CO2, in DMEM/F12 medium containing 10% FCS (fetal calf serum) and in each case split 1:10 after 2-3 days. The test cultures are seeded in 384-well plates with 2000 cells per well and grown at 37° C. for approx. 48 hours. The medium is then replaced with a physiological sodium chloride solution (130 mM sodium chloride, 5 mM potassium chloride, 2 mM calcium chloride, 20 mM HEPES, 1 mM magnesium chloride hexahydrate, 5 mM sodium bicarbonate, pH 7.4). The substances to be tested, which are dissolved in DMSO, are pipetted into the test cultures (maximum final concentration of DMSO in the test mixture: 0.5%) in a dilution series of from 5×10^−11M to 3×10^−6M (final concentration). 10 minutes later, forskolin is added to the A1 cells and all the cultures are subsequently incubated at 37° C. for four hours. After that, 35 μl of a solution which is composed of 50% lysis reagent (30 mM disodium hydrogenphosphate, 10% glycerol, 3% TritonX100, 25 mM TrisHCl, 2 mM dithiotreitol (DTT), pH 7.8) and 50% luciferase substrate solution (2.5 mM ATP, 0.5 mM luciferin, 0.1 mM coenzyme A, 10 mM tricine, 1.35 mM magnesium sulfate, 15 mM DTT, pH 7.8) are added to the test cultures, which are shaken for approx. 1 minute and the luciferase activity is measured using a camera system. The EC50 values are determined, i.e., the concentrations at which 50% of the luciferase answer is inhibited in the case of the A1 cell, and, respectively, 50% of the maximum stimulation with the corresponding substance is achieved in the case of the A2b and A2a cells. […] Pharmacol., 357 (1998), 1-9).
(§4) Table 1 below lists the EC50 values of representative working examples for the receptor stimulation on adenosine A1, A2a and A2b receptor subtypes: […]

Another experiment has as its target T2, adenosine A2a receptor (Homo sapiens, UniProt P29274).
T2 construct: expressed in transfected cells; host or cells: CHO (Chinese Hamster Ovary)
The experiment can be described thus: Indirect determination of adenosine agonism by gene expression (luciferase), A2a cells. The conditions noted are these: stably transfected CHO cells; 50% of maximum luciferase stimulation.
From the text: as §1, §2, §3, §4

For the next experiment, the target named is T3, adenosine A2b receptor (Homo sapiens, UniProt P29275).
T3 construct: expressed in transfected cells; host or cells: CHO (Chinese Hamster Ovary)
T3 sequence (P29275 1-332): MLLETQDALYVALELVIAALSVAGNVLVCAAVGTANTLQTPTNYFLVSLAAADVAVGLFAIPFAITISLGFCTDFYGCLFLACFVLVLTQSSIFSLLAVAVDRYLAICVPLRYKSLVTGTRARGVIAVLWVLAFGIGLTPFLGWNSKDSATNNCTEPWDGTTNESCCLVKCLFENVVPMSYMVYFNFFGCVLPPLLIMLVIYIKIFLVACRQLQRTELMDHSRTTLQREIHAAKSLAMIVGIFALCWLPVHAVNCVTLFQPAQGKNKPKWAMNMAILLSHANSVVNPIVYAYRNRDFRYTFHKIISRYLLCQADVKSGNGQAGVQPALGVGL
The experiment can be described thus: Indirect determination of adenosine agonism by gene expression (luciferase), A2b cells. The conditions noted are these: stably transfected CHO cells; 50% of maximum luciferase stimulation.
From the text: as §1, §2, §3, §4

T2 sequence (P29274 whole entry): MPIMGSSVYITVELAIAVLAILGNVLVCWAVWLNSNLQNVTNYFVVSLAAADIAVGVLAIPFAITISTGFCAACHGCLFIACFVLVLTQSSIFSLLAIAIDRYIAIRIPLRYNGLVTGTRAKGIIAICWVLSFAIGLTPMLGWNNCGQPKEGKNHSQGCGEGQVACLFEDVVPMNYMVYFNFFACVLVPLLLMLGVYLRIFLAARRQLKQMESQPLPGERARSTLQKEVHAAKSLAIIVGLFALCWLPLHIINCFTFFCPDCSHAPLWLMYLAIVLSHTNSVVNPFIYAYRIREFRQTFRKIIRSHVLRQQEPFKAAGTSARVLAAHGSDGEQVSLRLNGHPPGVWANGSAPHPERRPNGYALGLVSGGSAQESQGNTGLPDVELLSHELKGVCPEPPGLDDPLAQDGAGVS

On to `N#Cc1c(N)nc(SCc2cccc(C(N)=O)c2)c(C#N)c1C1CCCCC1` [Example 70], for which the EC50 on adenosine A1 receptor stood at 0.08 nM; at adenosine A2a receptor, 224 nM; at adenosine A2b receptor it was 22 nM.
For `N#Cc1cnc(SCc2csc(-c3ccc(C(=O)O)cc3)n2)c(C#N)c1C1CCCOC1` (racemic) [Example 65, rac-4-[4-({[3,5-Dicyano-4-(tetrahydro-2H-pyran-3-yl)pyridin-2-yl]sulfanyl}methyl)-1,3-thiazol-2-yl]benzoic acid], in that order: 9.5 nM, over 3000 nM and 860 nM.
As to `N#Cc1c(N)nc(SCc2cccc(C(=O)O)c2)c(C#N)c1C1CCCCO1` (stereo not drawn) [Example 51], the EC50 is 6.8 nM at adenosine A1 receptor, over 3000 nM at adenosine A2a receptor and over 3000 nM at adenosine A2b receptor.
Take `N#Cc1c(N)nc(SCc2csc(-c3ccc(Cl)cc3)n2)c(C#N)c1C1CCCCC1` [Example 29, 2-Amino-6-({[2-(4-chlorophenyl)-1,3-thiazol-4-yl]methyl}thio)-4-cyclohexylpyridine-3,5-dicarbonitrile]: the EC50 is 3.8 nM at adenosine A1 receptor, over 3000 nM on adenosine A2a receptor and 345 nM at adenosine A2b receptor.
With `N#Cc1c(N)nc(SCc2csc(-c3ccc(C(=O)O)cc3)n2)c(C#N)c1C1CCCOC1` (single isomer, unassigned; (+)) [Example 62, (+)-4-[4-({[6-Amino-3,5-dicyano-4-(tetrahydro-2H-pyran-3-yl)pyridin-2-yl]sulfanyl}methyl)-1,3-thiazol-2-yl]benzoic acid], the EC50 is 0.06 nM at adenosine A1 receptor, over 3000 nM on adenosine A2a receptor and over 3000 nM at adenosine A2b receptor.
Turning to `N#Cc1c(N)nc(SCc2csc(-c3ccc(Cl)cc3)n2)c(C#N)c1C1CCN(C(=O)CO)CC1` [Example 9, 2-Amino-6-({[2-(4-chlorophenyl)-1,3-thiazol-4-yl]methyl}thio)-4-(1-glycoloylpiperidin-4-yl)-pyridine-3,5-dicarbonitrile], the EC50 was 8.9 nM at adenosine A1 receptor, over 3000 nM at adenosine A2a receptor and 791 nM at adenosine A2b receptor.
For `N#Cc1c(N)nc(SCc2csc(-c3ccc(Cl)cc3)n2)c(C#N)c1[C@H]1CC[C@@H](O)CC1` [Example 4], in that order: 2.9 nM, 1100 nM and 320 nM.
Regarding `N#Cc1c(N)nc(SCc2coc(-c3ccc(Cl)cc3)n2)c(C#N)c1C1CCCOC1` (stereo not drawn) [Example 58, 2-Amino-6-({[2-(4-chlorophenyl)-1,3-oxazol-4-yl]methyl}sulfanyl)-4-(tetrahydro-2H-pyran-3-yl)-pyridine-3,5-dicarbonitrile], the figures for the EC50 at adenosine A1 receptor, on adenosine A2a receptor and at adenosine A2b receptor were 11 nM, over 3000 nM and 950 nM, respectively.
As for `N#Cc1c(N)nc(SCc2coc(-c3ccc(F)c(Cl)c3)n2)c(C#N)c1[C@H]1CC[C@@H](O)CC1` [Example 78], the EC50 on adenosine A1 receptor was 17 nM; at adenosine A2a receptor it was over 3000 nM; at adenosine A2b receptor, over 3000 nM.
For `N#Cc1c(N)nc(SCc2csc(-c3ccc(Cl)cc3)n2)c(C#N)c1[C@H]1CC[C@H](O)CC1` [Example 3, 2-Amino-6-({[2-(4-chlorophenyl)-1,3-thiazol-4-yl]methyl}thio)-4-(trans-4-hydroxycyclohexyl)-pyridine-3,5-dicarbonitrile], the EC50 at adenosine A1 receptor is 0.8 nM; at adenosine A2a receptor it was 1260 nM; at adenosine A2b receptor it was 558 nM.
Turning to `CN1CCN(CCCNc2nc(SCc3csc(-c4ccc(Cl)cc4)n3)c(C#N)c(C3CCCCC3)c2C#N)CC1` [Example 35], the concentration giving a half-maximal response (EC50) on adenosine A1 receptor was 68 nM; on adenosine A2a receptor, 1470 nM; on adenosine A2b receptor, over 3000 nM.
Take `N#Cc1c(N)nc(SCc2csc(-c3ccc(C(=O)O)cc3)n2)c(C#N)c1C1CCCCO1` (single isomer, unassigned) [Example 23]: the EC50 worked out at 0.4 nM on adenosine A1 receptor, 620 nM at adenosine A2a receptor and 75 nM on adenosine A2b receptor.
As for `Cc1sc(-c2ccc(Cl)cc2)nc1CSc1nc(N)c(C#N)c(C2CCCCC2)c1C#N` [Example 76], the EC50 on adenosine A1 receptor was 106 nM; on adenosine A2a receptor it was over 3000 nM; on adenosine A2b receptor it was over 3000 nM.
Turning to `Cc1nc(SCc2csc(-c3ccc(C(=O)O)cc3)n2)c(C#N)c(C2CCCCO2)c1C#N` (single isomer, unassigned; (+)) [Example 56, (+)-4-[4-({[3,5-Dicyano-6-methyl-4-(tetrahydro-2H-pyran-2-yl)pyridin-2-yl]sulfanyl}methyl)-1,3-thiazol-2-yl]benzoic acid], the figures for the EC50 at adenosine A1 receptor, at adenosine A2a receptor and at adenosine A2b receptor were 0.8 nM, over 3000 nM and 51 nM, respectively.
Turning to `N#Cc1c(N)nc(SCc2csc(-c3ccc(Cl)cc3)n2)c(C#N)c1C1CCCCO1` (single isomer, unassigned; ent-2) [Example 15, ent-2-Amino-6-({[2-(4-chlorophenyl)-1,3-thiazol-4-yl]methyl}thio)-4-(tetrahydro-2H-pyran-2-yl)-pyridine-3,5-dicarbonitrile], the EC50 at adenosine A1 receptor was 10 nM; on adenosine A2a receptor, 380 nM; at adenosine A2b receptor it was 670 nM.
